Reference: the supplement of paper PMC10307832

How the values were obtained:
Experiment in all cases: relative viability (nuclei count vs DMSO), 5 days (fraction); higher = more cells survive
Carboplatin + Alpelisib = compound: C1CC(C1)(C(=O)O)C(=O)O.[NH2-].[NH2-].[Pt+2] [Carboplatin] + Cc1nc(NC(=O)N2CCC[C@H]2C(N)=O)sc1-c1ccnc(C(C)(C)C(F)(F)F)c1 [Alpelisib] (partner 2 µM)
Outline: (§1)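 A single step with final 0.05% Triton X-100, 1% formaldehyde and 1 ug/ml Hoechst fixed the cells and stained nuclei 5 days after treatment. Lung cancer cell lines in 1536-well plates had been treated by pin tool the day after seeding with one drug alone or a fixed anchor-drug dose plus five library-drug doses (not always all listed) in √10 steps, and nuclei were counted on 4× images. Relative viability is the ratio of nuclei in treated wells to nuclei in vehicle wells, taken as the median of duplicate plates.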

GSK126 + Trametinib = compound: CC[C@H](C)N1C=C(C2=C(C=C(C=C21)C3=CN=C(C=C3)N4CCNCC4)C(=O)NCC5=C(C=C(NC5=O)C)C)C [GSK126] + CC(=O)Nc1cccc(-n2c(=O)n(C3CC3)c(=O)c3c(Nc4ccc(I)cc4F)n(C)c(=O)c(C)c32)c1 [Trametinib] (partner 0.02 µM)
Outline: as §1

GSK126 + Vorinostat = compound: CC[C@H](C)N1C=C(C2=C(C=C(C=C21)C3=CN=C(C=C3)N4CCNCC4)C(=O)NCC5=C(C=C(NC5=O)C)C)C [GSK126] + O=C(CCCCCCC(=O)Nc1ccccc1)NO [Vorinostat] (partner 1 µM)
Outline: as §1

MLN4924 + Dasatinib = compound: NS(=O)(=O)OC[C@@H]1C[C@@H](n2ccc3c(N[C@H]4CCc5ccccc54)ncnc32)C[C@@H]1O [MLN4924] + Cc1nc(Nc2ncc(C(=O)Nc3c(C)cccc3Cl)s2)cc(N2CCN(CCO)CC2)n1 [Dasatinib] (partner 0.075 µM)
Outline: as §1

Cell Line	relative viability (Carboplatin + Alpelisib; first compound 0.08 µM)	relative viability (Carboplatin + Alpelisib; first compound 0.253 µM)	relative viability (Carboplatin + Alpelisib; first compound 0.8 µM)	relative viability (Carboplatin + Alpelisib; first compound 2.53 µM)	relative viability (Carboplatin + Alpelisib; first compound 8 µM)	relative viability (GSK126 + Trametinib; first compound 0.08 µM)	relative viability (GSK126 + Trametinib; first compound 0.253 µM)	relative viability (GSK126 + Trametinib; first compound 0.8 µM)	relative viability (GSK126 + Trametinib; first compound 2.53 µM)	relative viability (GSK126 + Trametinib; first compound 8 µM)	relative viability (GSK126 + Vorinostat; first compound 0.08 µM)	relative viability (GSK126 + Vorinostat; first compound 0.253 µM)	relative viability (GSK126 + Vorinostat; first compound 0.8 µM)	relative viability (GSK126 + Vorinostat; first compound 2.53 µM)	relative viability (GSK126 + Vorinostat; first compound 8 µM)	relative viability (MLN4924 + Dasatinib; first compound 0.04 µM)	relative viability (MLN4924 + Dasatinib; first compound 0.1265 µM)	relative viability (MLN4924 + Dasatinib; first compound 0.4 µM)	relative viability (MLN4924 + Dasatinib; first compound 1.265 µM)	relative viability (MLN4924 + Dasatinib; first compound 4 µM)
NCI-H2405	0.925	0.734	0.671	0.763	0.639	0.817	0.587	0.611	0.614	0.636	1.12	0.933	1.01	1.05	1.04	0.39	0.491	0.428	0.242	0.205
NCI-H2009	1.3	1.11	1.15	0.973	0.695	0.332	0.233	0.286	0.348	0.321	0.822	0.679	0.714	0.672	0.771	0.374	0.261	0.166	0.0589	0.0792
HOP-62	0.746	0.991	1.09	0.922	0.77	0.406	0.411	0.357	0.383	0.375	0.725	0.542	0.633	0.646	0.665	0.887	0.742	0.427	0.0794	0.076
NCI-H727	0.76	0.483	0.509	0.514	0.363	0.4	0.4	0.424	0.39	0.412	1.45	1.16	1.28	1.1	1.19	0.374	0.404	0.305	0.293	0.266
COR-L 105	1.01	1.07	0.893	0.959	0.566	0.453	0.424	0.467	0.439	0.466	0.963	0.828	0.639	0.826	0.68	0.398	0.289	0.33	0.222	0.225
PC-3 [JPC-3]	1.06	1.11	0.992	1	0.834	0.763	0.694	0.693	0.66	0.634	0.949	0.82	0.806	1	0.825	1.04	1.09	0.897	0.36	0.27
NCI-H2347	1.02	1.12	1	0.97	0.838	0.289	0.276	0.261	0.303	0.298	0.659	0.479	0.503	0.601	0.563	0.265	0.369	0.231	0.218	0.244
SW 1573	0.827	0.758	0.767	0.798	0.693	0.57	0.618	0.596	0.587	0.622	1.02	0.704	0.681	0.735	0.852	0.697	0.634	0.247	0.0507	0.0578
NCI-H838	1.09	1.07	0.953	0.995	0.979	0.58	0.51	0.437	0.477	0.483	0.747	0.688	0.659	0.638	0.69	0.268	0.271	0.245	0.199	0.219
HCC-78	0.291	0.391	0.317	0.285	0.33	0.585	0.792	0.653	0.696	0.592	0.429	0.402	0.413	0.437	0.452	0.412	0.307	0.604	0.314	0.152
A-427	1.14	1.09	1.02	1.05	1.06	0.845	0.762	0.712	0.757	0.795	0.863	0.833	0.865	0.958	0.896	0.367	0.529	0.248	0.145	0.179
CAL-12T	1.18	1.05	1.2	1.23	1.12	0.407	0.366	0.311	0.382	0.348	0.852	0.814	0.614	0.777	0.9	0.371	0.336	0.332	0.143	0.105
SK-MES-1	1.06	0.906	0.922	0.873	0.917	0.573	0.6	0.539	0.491	0.515	1.12	1.19	1.04	1.04	1.13	0.584	0.626	0.256	0.121	0.147
NCI-H460	0.462	0.424	0.325	0.322	0.0696	0.422	0.153	0.121	0.11	0.195	0.89	0.718	0.75	0.699	0.656	0.495	0.657	0.849	0.377	0.0538
LK-2	1.41	1.23	0.837	0.961	1.09	0.861	0.817	0.779	0.857	0.575	0.239	0.233	0.411	0.279	0.298	0.28	0.261	0.285	0.162	0.196
NCI-H2085	0.998	1.05	0.907	0.882	0.756	0.614	0.658	0.554	0.569	0.568	0.851	0.813	0.804	0.841	0.948	0.215	0.226	0.339	0.393	0.292
